Measured values taken from patent US20090263744A1, “ETHYLENICALLY UNSATURATED COMPOUND, LIGHT SENSITIVE COMPOSITION, LIGHT SENSITIVE PLANOGRAPHIC PRINTING PLATE MATERIAL AND PRINTING PROCESS EMPLOYING THE SAME” (priority 2005, published 2009).

Tests used:
[1] = Solubility of polymerizable monomer in 25° C. pure water (visual, no precipitations or oily separated components); type: physicochemical
Experimental: (§1) Herein, “dissolve” implies that no precipitations or oily separated components are visually observed under the following experimental conditions. Solubility in a 25° C. KOH aqueous solution having a pH of 12.5 or 25° C. pure water is represented by a value obtained by the following measuring method.
(§2) An ethylenically unsaturated compound is added to 20 ml of the solution or pure water described above at 25° C. in a 100 ml conical flask, stirred with a stirrer having a 1 cm long stirrer piece at a rate of 300 rpm for one hour, then allowed to stand for five minutes.
(§3) Solubility of polymerizable monomer to water or an alkali solution was measured according to the procedure described above.

[2] = Solubility of polymerizable monomer in alkali solution (25° C. KOH aqueous solution having a pH of 12.5); type: physicochemical; details: Table 3, pH 12.5
Experimental: as §1, §2, §3

## C=CC(=O)OCC(CO)(COC(=O)C=C)COC(=O)C=C [PETA, Pentaerythritol triacrylate]
[1]; Table 2, water, 25° C.
  Solubility of polymerizable monomer weight % (water): 0.1 weight %
[1]; Table 3, 25° C. pure water
  Solubility of polymerizable monomer, Pure water: 0.1 % by weight
[2]
  Solubility of polymerizable monomer, Alkali solution: 0.1 % by weight
